Measured values reported in PubChem BioAssay (NCI).
Values joined by “and” are separate entries in the source; they are usually repeats but may differ in a detail not shown here. Equal entries are not always repeated.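 Step 1: Grow cells in 96-well plates. Step 2: Expose to compound for 48 hours at 5 concentrations. Step 3: Interpolate endpoints linearly; if unreached, use highest concentration. Here, GI50 denotes the concentration required for 50% inhibition of growth. TGI denotes the concentration required for complete inhibition of growth.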

Assays:
Assay in all cases: growth of human tumour cells (NCI), 48 h
[1] = tested on: 786-0 renal
[2] = tested on: SN12C renal
[3] = tested on: HS 578T breast
[4] = tested on: ACHN renal
[5] = tested on: M14 melanoma
[6] = tested on: CCRF-CEM leukemia
[7] = tested on: SK-MEL-5 melanoma
[8] = tested on: SF-295 CNS
[9] = tested on: HCT-15 colon
[10] = tested on: OVCAR-3 ovarian

Row | Compound | GI50 [1] [µM] | TGI [1] | GI50 [2] [µM] | TGI [2] | GI50 [3] [µM] | TGI [3] | GI50 [4] [µM] | TGI [4] | GI50 [5] [µM] | TGI [5] | GI50 [6] | TGI [6] | GI50 [7] | TGI [7] | TGI [8] | GI50 [9] [µM] | TGI [9] [µM] | GI50 [10] [µM] | TGI [10] | GI50 [8] [µM]
1 | N=C(N)c1ccc(OCCCCCOc2ccc(C(=N)N)cc2)cc1 | 12 | > 50 µM and 27.1 µM and 31.8 µM | 2.02 | 34.2 µM and 25 µM and 24.7 µM | 7.64 | 32.2 µM and 33 µM and 38.5 µM | 18.5 | > 50 µM and 79.2 µM and > 100 µM | 5.63 | 17.2 µM and 31.8 µM and 31.9 µM | 23.7 µM and 11.1 µM and 45.1 µM | > 50 µM and 60.1 µM and > 100 µM | 1.02 µM and 2.29 µM and 10.1 µM | 3.33 µM and 11.7 µM and 29.5 µM | 19.7 µM and 21.3 µM and 77.1 µM | 7.57 | > 100 | 5.25 | 15.4 µM and 34.9 µM and 37 µM | –
2 | O=[N+]([O-])c1ccc(/C=C\c2ccc3c(c2)OCO3)c([N+](=O)[O-])c1 | – | > 100 µM | – | 34 µM | – | 38.5 µM | – | 33.6 µM | – | 31.1 µM | – | 33.7 µM | – | 38.9 µM | 59.1 µM | – | 37.3 | – | 43.1 µM | –
3 | C=CC[PH+](c1ccccc1)c1ccccc1.C=CC[PH+](c1ccccc1)c1ccccc1.[Pt+2].[S-]c1ncccn1.[S-]c1ncccn1 | 18.8 | 48.1 µM | 13.5 | 48.6 µM | 23 | > 100 µM | 2.14 | 5.31 µM | 5.67 | 31.9 µM | 3.17 µM | > 100 µM | 17.3 µM | 38.5 µM | > 100 µM | 2.94 | 10.4 | 2.88 | 9.49 µM | > 100
4 | CN(C)CCS(=O)(=O)Nc1cc(-c2ccc3ncnc(Nc4ccc(F)c(Cl)c4)c3c2)cnc1Cl | 1.34 | > 100 µM | 0.624 | > 100 µM | 0.32 | 10.8 µM | 0.392 | > 100 µM | 0.655 | > 35.4 µM | 0.322 µM | > 37 µM | 0.208 µM | 0.622 µM | > 100 µM | 1.11 | 4.36 | 0.22 | 1.2 µM | 0.515
5 | Nc1ccn([C@@H]2S[C@H](CO)[C@@H](O)[C@@H]2F)c(=O)n1 | 0.109 | – | 0.0405 | > 100 µM | > 100 | > 100 µM | 0.0271 | – | 0.0616 | 0.842 µM | < 0.01 µM | > 100 µM | 0.178 µM | > 100 µM | > 24.7 µM | 0.413 | > 100 | > 51.1 | > 100 µM | 0.452
6 | Nc1n[nH]c2ccc([C@@H]3Nc4c(F)cc5[nH]ncc5c4[C@H]4C5CCC(C5)[C@@H]34)cc12 (some centres not stated) | 0.74 | 25 µM | 0.544 | > 54.9 µM | 0.178 | 8.78 µM | 0.912 | > 64.7 µM | 0.206 | > 32.8 µM | 0.332 µM | > 52.1 µM | 0.6 µM | 4.94 µM | 18.4 µM | 0.222 | > 41.5 | 0.216 | 0.735 µM | 0.11
